In patent US9877961B2, “Anticoagulant reversal agents” (PEROSPHERE INC., priority 2011, dated 2018):
“Also recorded” adds a separate entry of the source.

What was measured:
[1] = Intravenous DAP tolerability in rats; type: in vivo, rat; details: DAP i.v. at 100 mg/kg, 250 mg/kg and 400 mg/kg in rats
CYP enzymes = assay: CYP enzyme inhibition / substrate; type: in vitro ADME; details: data not shown
[2] = system: fondaparinux anticoagulation; assay: DAP reversal of fondaparinux (ARIXTRA®) anticoagulation in vivo, chromogenic Factor Xa assay; design: species or system rat
Experimental: The anti-factor Xa assay directly measures anti-factor Xa activity. The methodology behind an anti-factor Xa assay is that patient plasma is added to a known amount of excess factor Xa and excess antithrombin. If a factor Xa inhibitor is present in the patient plasma, it will reduce the enzymatic activity of factor Xa. The amount of residual factor Xa is inversely proportional to the amount of anti-Xa agent in the plasma. The amount of residual factor Xa is detected by adding a chromogenic substrate that mimics the natural substrate of factor Xa, making residual factor Xa cleave it, releasing a colored compound that can be detected by a spectrophotometer. […] Results are given in anticoagulant concentration in units/mL of antifactor Xa, such that high values indicate high levels of anticoagulation and low values indicate low levels of anticoagulation.
5 mg/kg fondaparinux was administered subcutaneously to rats. 200 mg/kg DAP was administered intravenously after 2 hours. Activity was measured by chromogenic 510 k cleared Factor Xa Assay (Biophen) at 10, 20, 30 and 60 minutes after DAP administration.

[3] = Oral bioavailability of DAP in rats; type: in vivo, rat
[4] = system: dabigatran etexilate (PRADAXA®) anticoagulation; assay: Rat tail transection bleeding assay, dabigatran etexilate; type: in vivo
Experimental: (§1) Rat tail bleeding assay or rat tail transection assay is an assay that measures blood loss, e.g., blood loss after drug administration. In one embodiment, where the effect of the compound of the invention (e.g., DAP) is being tested, at the Tmax of the anticoagulant, DAP is administered intravenously. After 20 minutes, rat tails are transected approximately 1 mm from the tip, placed in room temperature saline, and blood is collected for 30 minutes and weighed.
(§2) Three rats each were administered 2 mg of rivaroxaban. One rat received a sham reversal containing no DAP, the second received 2.5 mg of DAP, and the third received 12.5 mg DAP. A fourth fat received sham anticoagulant and reversal doses (“sham”). 20 minutes after the reversal dose, tails were transected 1 mm from the tip, placed in room temperature saline, and blood loss was collected for 30 minutes and then weighed.
Same procedures were used with 1.25 mg apixaban (ELIQUIS®) alone or in combination with 5 or 12.5 mg DAP; […]; and with 5 mg edoxaban (LIXIANA®) alone or in combination with 12.5 mg DAP.

[5] = DLS association of DAP with LMWH (bemiparin); type: binding
Experimental: (§3) Dynamic light scattering (DLS) was used to assess association of 1 mg/ml unfractionated heparin and 1 mg/ml bemiparin (LMWH; HIBOR®), either alone or in combination with […] DAP in water (mass ratios of 100:1 of DAP to heparin or LMWH).
Rivaroxaban (XARELTO®) alone, DAP alone, and DAP:rivaroxaban combinations at mass ratios of 1:1 and 10:1 were added into an aqueous solution and analyzed by dynamic light scattering (DLS) to assess association of the DAP and rivaroxaban. A similar experiment was conducted on apixaban (ELIQUIS®) alone, DAP alone, and DAP:apixaban combinations at mass ratios of 1:1, 10:1 and 100:1. Fondaparinux (ARIXTRA®) alone, DAP alone, and fondaparinux:DAP combinations at mass ratios of 1:1, 10:1 and 100:1 were similarly tested. LMWH (bemiparin; HIBOR®), alone, DAP alone, and LMWH:DAP combinations at mass ratios of 1:1, 10:1, and 100:1 were also tested. The concentration of LMWH tested was 0.1 mg/ml. Therefore, at 1:1, 0.1 mg/ml DAP was tested, at 10:1, 1 mg/ml was tested, and at 100:1, 10 mg/ml DAP was tested.

[6] = DLS association of DAP with argatroban; type: binding; details: concentrations up to 1:1000
[7] = system: rivaroxaban-induced anticoagulation; assay: DAP reversal of rivaroxaban in freshly drawn human blood ex vivo, aPTT; type: biochemical; details: 0.25 μg/ml rivaroxaban, 50 μg/ml DAP
Experimental: Human blood was drawn from a volunteer. Rivaroxaban at 0.25 μg/ml was added alone or in combination with 50 μg/ml DAP. Controls contained 50 μg/ml DAP or saline. aPTT was measured within 2 minutes of blood collection.

[8] = Dynamic light scattering (DLS) association of DAP with unfractionated heparin; type: binding; details: DAP:heparin 100:1 mass ratio in water
Experimental: as §3

[9] = system: edoxaban (LIXIANA®) anticoagulation; assay: Rat tail transection bleeding assay, edoxaban; type: in vivo
Experimental: as §1, §2
Same procedures were used with 1.25 mg apixaban (ELIQUIS®) alone or in combination with 5 or 12.5 mg DAP; with 15.5 mg dabigatran etexilate (PRADAXA®) alone or in combination with 5 or 12.5 mg DAP; […]

[10] = system: dabigatran (PRADAXA®) anticoagulation; assay: DAP reversal of dabigatran (PRADAXA®) anticoagulation in vivo, aPTT; design: species or system rat
Source text: The activated partial thromboplastin time (aPTT) assay is an assay that measures how long it takes for the blood to clot. Blood samples are collected for direct measurement or in tubes with oxalate and citrate to arrest coagulation by calcium until the assay can be performed. In the assay, a phospholipid, an activator (silica, celite, kaolin, ellagic acid, etc.), and calcium are mixed into the plasma to induce coagulation. The assay measures the time until a thrombus (clot) forms.
A male albino rat, weighing 430 g, was administered 40 mg/kg of PRADAXA® (20 mg PRADAXA®; overdose of PRADAXA®) by oral gavage.
Approximately 2 hours into PRADAXA® treatment, 200 mg/kg DAP (100 mg DAP) was administered as an intravenous bolus injection. Approximately 2 hours later, the rat was administered a dose of 100 mg/kg of DAP (50 mg DAP). In another hour, the rat was administered another dose of 100 mg/kg of DAP (50 mg DAP). aPTT was measured throughout the course of the entire treatment.

[11] = system: argatroban anticoagulation; assay: Argatroban dosed rats given IV DAP; type: in vivo, rat; details: 200× IV dose of DAP
[12] = rat tail transection, 30 minutes

inhibition / substrate of CYP enzymes (CYP enzymes): did not inhibit or serve as a substrate | oral bioavailability [3]: orally bioavailable | binding by DLS [6]: did not bind | elimination half-life ([10]; inferred from return of anti-coagulation in rats): short elimination half-life
Structure (SMILES): N=C(N)NCCC[C@H](N)C(=O)NCCCN1CCN(CCCNC(=O)[C@@H](N)CCCNC(=N)N)CC1 (stereo in doubt) [DAP, 2-Amino-5-guanidino-pentanoic acid (3-{4-[3-(2-amino-5-guanidino-pentanoylamino)-propyl]-piperazin-1-yl}-propyl)-amide]
adverse effects [1]: no adverse effect | time to reversal of fondaparinux anticoagulation ([2]; 5 mg/kg fondaparinux s.c., 200 mg/kg DAP i.v. after 2 hours): ≤ 10 min | reversal of subcutaneous fondaparinux in vivo ([2]; rats, Xa activity): reversed | blood loss (blood collected over 30 minutes) ([4]; 15 mg dabigatran etexilate and 12.5 mg DAP, p<0.01 vs dabigatran etexilate only): reduced blood loss to sham dose levels | reversal of dabigatran, blood loss vs anticoagulant only [4, 12]: statistically significant reduction in blood loss | physical association / binding by DLS [5]: physically associated; also recorded: directly bound | effect on rivaroxaban-induced anticoagulation, aPTT [7]: reversal of rivaroxaban-induced anticoagulation | physical association / binding by DLS [8]: physically associated; also recorded: directly bound | blood loss (blood collected over 30 minutes) ([9]; 1.25 mg edoxaban and 12.5 mg DAP, p<0.05 vs edoxaban only): reduced blood loss to sham dose levels | reversal of edoxaban, blood loss vs anticoagulant only [9, 12]: reversed; also recorded: statistically significant reduction in blood loss | aPTT risen back after first DAP dose ([10]; 2 hours after 100 mg DAP): 79 s | aPTT risen after second DAP dose ([10]; after 50 mg DAP): 53 s | time until aPTT returned above baseline following DAP administration ([10]; both times (first and second DAP dose)): ≤ 60 min | time until aPTT below baseline after DAP ([10]; first dose, 100 mg DAP (200 mg/kg) i.v. bolus): ≤ 25 min | time until PRADAXA®-induced anti-coagulation returned after DAP ([10]; intravenous bolus dose of DAP in rats): 20 to 30 min | reversal of oral dabigatran anticoagulation in vivo ([10]; rats, aPTT): reversed | time until aPTT below baseline after DAP ([10]; second dose, 50 mg DAP (100 mg/kg)): ≤ 30 min | time until aPTT dropped to baseline after DAP ([10]; third dose, 100 mg/kg (50 mg) DAP i.v.): ≤ 20 min | anticoagulation of argatroban dosed rats after DAP [11]: remained anticoagulated
